Source: PubChem BioAssay AID200 (DTP/NCI, 2004)
Where “and” joins values, the source holds several entries; their conditions need not be identical. Equal values may be shown once. Inconclusive results and toxic doses are left out. Where a SMILES comes first, the peptide text is derived from it. The star is where a group is joined. Cbz = O=C(OCc1ccccc1)*; Bn = c1ccc(C*)cc1

Tested on: B6C3F1 mice, B16 melanoma ip, median survival T/C
Experiment: NCI In Vivo Anticancer Drug Screen. Data for tumor model B16 Melanoma (intraperitoneal) in B6C3F1 mice
Settings: endpoint: median survival time, higher = longer survival
Method in brief: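 Transplantable tumor in mice; treated vs vehicle control groups; survival or tumor size measured; value = T/C ratio.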

[1] = dose: 25.0 mg/kg/injection, schedule: Q01DX009 (ip), vehicle: saline with Tween-80
[2] = dose: 50.0 mg/kg/injection, schedule: Q01DX009 (ip), vehicle: saline with Tween-80
[3] = dose: 100.0 mg/kg/injection, schedule: Q01DX009 (ip), vehicle: saline with Tween-80
[4] = dose: 200.0 mg/kg/injection, schedule: Q01DX009 (ip), vehicle: saline with Tween-80
[5] = dose: 100.0 mg/kg/injection, schedule: Q01DX009 (ip), vehicle: Klucel (hydroxypropylcellulose) (HPC)
[6] = dose: 200.0 mg/kg/injection, schedule: Q01DX009 (ip), vehicle: Klucel (hydroxypropylcellulose) (HPC)
[7] = dose: 400.0 mg/kg/injection, schedule: Q01DX009 (ip), vehicle: Klucel (hydroxypropylcellulose) (HPC)
[8] = dose: 6.25 mg/kg/injection, schedule: Q01DX009 (ip), vehicle: saline with Tween-80
[9] = dose: 12.5 mg/kg/injection, schedule: Q01DX009 (ip), vehicle: saline with Tween-80
[10] = dose: 3.12 mg/kg/injection, schedule: Q01DX009 (ip), vehicle: saline with Tween-80
[11] = dose: 50.0 mg/kg/injection, schedule: Q01DX009 (ip), vehicle: saline
[12] = dose: 100.0 mg/kg/injection, schedule: Q01DX009 (ip), vehicle: saline
[13] = dose: 200.0 mg/kg/injection, schedule: Q01DX009 (ip), vehicle: saline

## C=C(C)C(=O)OC1CC(C)(O)C2(O)CCC(C)(/C=C3\OC(=O)C(COC(C)=O)=C31)O2 (centres undefined)
dose: 0.62 mg/kg/injection, schedule: Q01DX009 (ip), vehicle: distilled water + Tween-80 + alcohol
  T/C: 96 % of control
dose: 1.25 mg/kg/injection, schedule: Q01DX009 (ip), vehicle: distilled water + Tween-80 + alcohol
  T/C: 105 % of control
dose: 2.5 mg/kg/injection, schedule: Q01DX009 (ip), vehicle: distilled water + Tween-80 + alcohol
  T/C: 92 % of control
dose: 5.0 mg/kg/injection, schedule: Q01DX009 (ip), vehicle: distilled water + Tween-80 + alcohol
  T/C: 89 % of control

## C=C1C(=O)OCC1C(=O)O (centres undefined)
dose: 4.0 mg/kg/injection, schedule: Q01DX009 (ip), vehicle: saline
  T/C: 102 % of control and 103 % of control
dose: 8.0 mg/kg/injection, schedule: Q01DX009 (ip), vehicle: saline
  T/C: 102 % of control
dose: 16.0 mg/kg/injection, schedule: Q01DX009 (ip), vehicle: saline
  T/C: 88 % of control and 93 % of control
dose: 32.0 mg/kg/injection, schedule: Q01DX009 (ip), vehicle: saline
  T/C: 93 % of control

## O=C(Nc1cc(Cl)ccc1C(=O)O)c1cccc(C[n+]2ccccc2)c1
[1]
  T/C: 101 % of control
[2]
  T/C: 94 % of control
[3]
  T/C: 94 % of control

## Nc1nc(N)c2cc(S(=O)(=O)c3ccccc3)ccc2n1
[1]
  T/C: 88 % of control
[2]
  T/C: 103 % of control and 105 % of control
[4]
  T/C: 153 % of control and 171 % of control

## NC(CSCc1ccccc1)C(=O)Nc1ccc([N+](=O)[O-])cc1 (centres undefined)
[5]
  T/C: 115 % of control
[6]
  T/C: 111 % of control
[7]
  T/C: 116 % of control

## Nc1nc2ccc(NCc3ccc(C(=O)NC(CCC(=O)O)C(=O)O)cc3)cc2c(=O)[nH]1 (centres undefined)
[8]
  T/C: 88 % of control
[9]
  T/C: 91 % of control
[1]
  T/C: 97 % of control
[2]
  T/C: 91 % of control
[3]
  T/C: 93 % of control

## [Cl][Pt+2][Cl].[NH-]c1ccc(Cl)cc1[NH-]
dose: 2.5 mg/kg/injection, schedule: Q01DX009 (ip), vehicle: saline with Tween-80
  T/C: 116 % of control
dose: 20.0 mg/kg/injection, schedule: Q01DX009 (ip), vehicle: saline with Tween-80
  T/C: 168 % of control

## COc1cc(OC)c(OC)cc1/C=C\c1ccnc2ccccc12
dose: 12.5 mg/kg/injection, schedule: Q01DX009 (ip), vehicle: Klucel (hydroxypropylcellulose) (HPC)
  T/C: 98 % of control
dose: 25.0 mg/kg/injection, schedule: Q01DX009 (ip), vehicle: Klucel (hydroxypropylcellulose) (HPC)
  T/C: 105 % of control
dose: 50.0 mg/kg/injection, schedule: Q01DX009 (ip), vehicle: Klucel (hydroxypropylcellulose) (HPC)
  T/C: 108 % of control and 111 % of control
[5]
  T/C: 120 % of control and 107 % of control
[6]
  T/C: 97 % of control
[7]
  T/C: 151 % of control

## O=[N+]([O-])c1ccc(N(CCO)CCO)c2c1no[n+]2[O-]
[8]
  T/C: 102 % of control
[9]
  T/C: 114 % of control
[1]
  T/C: 102 % of control

## O=NN(CCCl)C(=O)NC1CCC(=O)NC1=O (centres undefined)
dose: 0.8 mg/kg/injection, schedule: Q01DX005 (ip), vehicle: saline + alcohol
  T/C: 118 % of control
dose: 0.8 mg/kg/injection, schedule: Q01DX005 (iv), vehicle: saline + alcohol
  T/C: 96 % of control
dose: 1.6 mg/kg/injection, schedule: Q01DX005 (ip), vehicle: saline + alcohol
  T/C: 155 % of control
dose: 2.0 mg/kg/injection, schedule: Q01DX005 (ip), vehicle: saline + alcohol
  T/C: 175 % of control
dose: 2.0 mg/kg/injection, schedule: Q01DX005 (iv), vehicle: saline + alcohol
  T/C: 102 % of control
dose: 3.2 mg/kg/injection, schedule: Q01DX005 (ip), vehicle: saline + alcohol
  T/C: 197 % of control
dose: 3.2 mg/kg/injection, schedule: Q01DX005 (iv), vehicle: saline + alcohol
  T/C: 151 % of control
dose: 4.0 mg/kg/injection, schedule: Q01DX001 (ip), vehicle: saline + alcohol
  T/C: 195 % of control
dose: 4.0 mg/kg/injection, schedule: Q01DX001 (iv), vehicle: saline + alcohol
  T/C: 124 % of control
dose: 4.0 mg/kg/injection, schedule: Q01DX005 (ip), vehicle: saline + alcohol
  T/C: 300 % of control
dose: 4.0 mg/kg/injection, schedule: Q01DX005 (iv), vehicle: saline + alcohol
  T/C: 180 % of control
dose: 6.4 mg/kg/injection, schedule: Q01DX005 (ip), vehicle: saline + alcohol
  T/C: 275 % of control
dose: 8.0 mg/kg/injection, schedule: Q01DX001 (ip), vehicle: saline + alcohol
  T/C: 200 % of control and 291 % of control
dose: 8.0 mg/kg/injection, schedule: Q01DX001 (iv), vehicle: saline + alcohol
  T/C: 162 % of control
dose: 8.0 mg/kg/injection, schedule: Q01DX005 (ip), vehicle: saline + alcohol
  T/C: 105 % of control
dose: 8.0 mg/kg/injection, schedule: Q01DX005 (iv), vehicle: saline + alcohol
  T/C: 150 % of control
dose: 8.0 mg/kg/injection, schedule: Q01DX005 (oral), vehicle: saline + alcohol
  T/C: 210 % of control
dose: 16.0 mg/kg/injection, schedule: Q01DX001 (ip), vehicle: saline + alcohol
  T/C: 255 % of control and 317 % of control
dose: 16.0 mg/kg/injection, schedule: Q01DX001 (iv), vehicle: saline + alcohol
  T/C: 194 % of control and 216 % of control
dose: 16.0 mg/kg/injection, schedule: Q01DX001 (oral), vehicle: saline + alcohol
  T/C: 183 % of control
dose: 32.0 mg/kg/injection, schedule: Q01DX001 (oral), vehicle: saline + alcohol
  T/C: 89 % of control

## O=C1NC(c2ccccc2)N=C2Oc3ccccc3C=C12 (centres undefined)
dose: 1.56 mg/kg/injection, schedule: Q01DX009 (ip), vehicle: saline with Tween-80
  T/C: 101 % of control
[10]
  T/C: 103 % of control
dose: 3.13 mg/kg/injection, schedule: Q01DX009 (ip), vehicle: saline with Tween-80
  T/C: 97 % of control
[8]
  T/C: 118 % of control and 124 % of control
[9]
  T/C: 116 % of control and 122 % of control
[2]
  T/C: 113 % of control

## CSc1nc(N)nc2c1ncn2C1OC(CO)C(O)C1O (centres undefined)
dose: 25.0 mg/kg/injection, schedule: Q01DX009 (ip), vehicle: saline
  T/C: 103 % of control
[11]
  T/C: 123 % of control
[12]
  T/C: 112 % of control
[13]
  T/C: 97 % of control
dose: 400.0 mg/kg/injection, schedule: Q01DX009 (ip), vehicle: saline
  T/C: 101 % of control

## COC(=O)c1[nH]c(=O)[nH]c(=O)c1F
[11]
  T/C: 98 % of control
[12]
  T/C: 94 % of control
[13]
  T/C: 100 % of control

## CC(=O)[C@]1(O)Cc2c(O)c3c(c(O)c2[C@@H](OC2CC(N)C(O)C(C)O2)C1)C(=O)c1c(O)cccc1C3=O (some centres undefined)
dose: 0.38 mg/kg/injection, schedule: Q01DX001 (ip), vehicle: water
  T/C: 150 % of control

## Nc1ccc2ccc(O)cc2c1
[1]
  T/C: 104 % of control
[2]
  T/C: 97 % of control
[3]
  T/C: 105 % of control

## C=COC(=O)N(C)C
[3]
  T/C: 99 % of control
[4]
  T/C: 97 % of control

## CC(C)C(NC(=O)C(CSCc1ccccc1)NC(=O)OCc1ccccc1)C(=O)O (centres undefined) (Cbz-Cys(Bn)-Val-OH; configuration not given here)
[5]
  T/C: 93 % of control
[6]
  T/C: 98 % of control

## Cc1ccc(C(CCCl)OC(C)C)cc1 (centres undefined)
[3]
  T/C: 97 % of control
[4]
  T/C: 94 % of control
dose: 400.0 mg/kg/injection, schedule: Q01DX009 (ip), vehicle: saline with Tween-80
  T/C: 94 % of control

## CCCCCCCCCCCCSC1=C(Cl)C(=O)C(OC)=C(OC)C1=O
[10]
  T/C: 95 % of control and 102 % of control
[8]
  T/C: 95 % of control and 103 % of control
[9]
  T/C: 89 % of control and 94 % of control
[1]
  T/C: 90 % of control and 100 % of control
[2]
  T/C: 88 % of control and 101 % of control
[3]
  T/C: 89 % of control

## CC(C)CCC(=O)c1ccoc1
dose: 0.12 mg/kg/injection, schedule: Q03HX027 (ip), vehicle: saline with Tween-80
  T/C: 100 % of control
dose: 0.25 mg/kg/injection, schedule: Q01DX009 (ip), vehicle: saline with Tween-80
  T/C: 100 % of control
dose: 0.25 mg/kg/injection, schedule: Q03HX027 (ip), vehicle: saline with Tween-80
  T/C: 98 % of control
dose: 0.5 mg/kg/injection, schedule: Q01DX009 (ip), vehicle: saline with Tween-80
  T/C: 100 % of control
dose: 0.5 mg/kg/injection, schedule: Q03HX027 (ip), vehicle: saline with Tween-80
  T/C: 107 % of control
dose: 1.0 mg/kg/injection, schedule: Q01DX009 (ip), vehicle: saline with Tween-80
  T/C: 102 % of control
dose: 1.0 mg/kg/injection, schedule: Q03HX027 (ip), vehicle: saline with Tween-80
  T/C: 88 % of control
dose: 2.0 mg/kg/injection, schedule: Q01DX009 (ip), vehicle: saline with Tween-80
  T/C: 102 % of control
dose: 2.0 mg/kg/injection, schedule: Q03HX027 (ip), vehicle: saline with Tween-80
  T/C: 107 % of control
